Where no end group is shown, it is not given here.

We go through 2 sequences from patent US5747269A, “Determination of peptide motifs on MHC molecules” (Max-Planck-Gesellschaft zur Forderung der Wissenschaften …, priority 1991, dated 1998).

The test system of one experiment is K^d. The note with it: natural influenza epitope; cited from earlier work.

As for SYFPEITHI [SYFPEITHI (SEQ ID NO:2)], in the experiment with H-2K^d, the “match of the K^d-eluted self peptide sequence with the K^d-restricted consensus motif” value is “matches the consensus motif”.

Regarding TYQRTRALV [TYQRTRALV (SEQ ID NO:1)], in the experiment on K^d, the “K^d restriction / T cell epitope” value is reported as “natural K^d -restricted influenza epitope”.
